29 compounds from US8071650B2, “Thiourea derivatives and the pharmaceutical compositions containing the same” (Pacific Corporation, priority 2000, dated 2011) can be followed below.

Like-named read-outs stand apart in the source and are kept apart here.

For orientation: IC50 means the concentration that inhibits the measured activity by half.

One test addresses T1, vanilloid receptor (Rattus norvegicus, UniProt O35433).
T1 construct: DRG nerve cells from the primary culture of 2-3 days were equilibrated; endogenous in cells; host or cells: primary culture of dorsal root ganglion neurons from neonatal SD rats
As to the kind of experiment: 45Ca influx test, antagonistic activity against capsaicin (Calcium Uptake Test, IC50). Type of test: cell-based. As for the experimental part: 1) Separation of Spinal Dorsal Root Ganglia (DRG) in Newborn Rats and Primary Culture Thereof
Neonatal(2-day old or younger than 2-day old) SD rats were put in ice for 5 minutes to anesthetize and disinfected with 70% ethanol. […] The DRG were incubated sequentially at 37° C. for 30 min in 200 U/ml collagenase and 2.5 mg/ml trypsin, separately. The ganglia were washed twice with DME/F12 medium supplemented with 10% horse serum, triturated through a fire-polished Pasteur pipette, filtered through Nitex 40 membrane to obtain single cell suspension. This was subjected to centrifugation, then re-suspended in cell culture medium at certain level of cell density. As the cell culture medium, DME/F12 medium supplemented with 10% horse serum, diluted 1:1 with identical medium conditioned by C6 glioma cells (2 days on a confluent monolayer) was used, and NGF(Nerve Growth Factor) was added to final concentration of 200 ng/ml. After the cells were grown 2 days in medium where cytosine arabinoside (Ara-C, 100 μM) was added to kill dividing nonneuronal cells, medium was changed to one without Ara-C. The resuspended cells were plated at a density of 1500-1700 neurons/well onto Terasaki plates previously coated with 10 μg/ml poly-D-ornithine.
2) ^45Ca Influx Experiments
DRG nerve cells from the primary culture of 2-3 days were equilibrated by washing 4 times with HEPES (10 mM, pH 7.4)-buffered Ca^2+, Mg^2+-free HBSS (H-HBSS). The solution in each well was removed from the individual well. Medium containing the test compound plus capsaicin (final concentration 0.5 μM) and ^45Ca (final concentration 10 μCi/ml) in H-HBSS was added to each well and incubated at room temperature for 10 min. Terasaki plates were washed six times with H-HBSS and dried in an oven. To each well, 0.3% SDS (10 μl) was added to elute ^45Ca. After the addition of […] of scintillation cocktail into each well, the amount of ^45Ca influx into neuron was measured by counting radioactivity.

The subject of test [1] is Male ICR mice. As to the kind of experiment: Analgesic activity test: mouse writhing test by inducing with phenyl-p-quinone. Type of test: in vivo. The conditions noted are these: ip, 30 min before phenyl-p-quinone, read-out: Analgesic effect (% Inhibition); for inhibition in vivo at 10 mg/kg: dose 10 mg/kg intraperitoneally; for inhibition in vivo at 3 mg/kg: dose 3 mg/kg intraperitoneally. On the procedure:
(3) Analgesic Activity Test: Mouse Writhing Test by Inducing with phenyl-p-quinone
Male ICR mice (mean body weight 25 g) were maintained in a controlled lighting environment (12 h on/12 h off) for experiment. Animals received an intraperitoneal injection of 0.3 ml of the chemical irritant phenyl-p-quinone (dissolved in saline containing 5% ethanol to be a dose of 4.5 mg/kg) and 6 min later, the number of abdominal constrictions was counted in the subsequent 6 min period. Animals (10 animals/group) received 0.2 ml of test compounds solution in vehicle of ethanol/Tween 80/saline (10/10/80) intraperitoneally 30 min before the injection of phenyl-p-quinone. A reduction in the number of writhes responding to the test drug compound relative to the number responding in saline control group was considered to be indicative of an analgesic effect Analgesic effect was calculated by % inhibition equation (% inhibition=(C−T)/C×100), wherein C and T represent the number of writhes in control and compound-treated group, respectively (Table 2).
For orientation: Writhing tests count abdominal constrictions after an irritant is injected.

Test [2] relates to Male ICR mice. The experiment in a line: Antiinflammatory activity test: TPA-induced mouse ear edema test. Type of test: in vivo. The following applies: dose 1 mg/ear topically, ear weight 24 h after TPA. As for the experimental part:
(4) Antiinflammatory Activity Test: TPA(12-O-tetraecanoylphorbol 13-acetate)-induced mouse ear edema test
Male ICR mice(body weight 25-30 g), 10 animals/group, were treated topically on the right ear with 30 μl of TPA (2.5 μg) solution in acetone and after 15 min, 30 μl of acetone or test compound solution in acetone was applied topically. After six hours, an identical treatment was applied again. After twenty four hours following the treatment of TPA, the animals were sacrificed and ear tissue was dissected using 6 mm-diameter punch. Ear tissue dissected were weighed to the nearest 0.1 mg on an electrobalance. The increased weight of the tissue compared to control group was considered as an index of inflammation. The percent inhibition is defined by the following equation:
% inhibition=(C−T)/C×100, wherein C and T represent an increase of ear weight in TPA-treated and TPA+drug-treated group, respectively (Table 3).

Another test relates to Male SD rats. The experiment in a line: Ulcer test: ethanol-induced anti-ulcer test. The conditions noted are these: dose 30 mg/kg orally, 1 hour before 99% ethanol. Type of test: in vivo, rat. On the procedure:
(5) Ulcer Test: Ethanol-induced Anti-ulcer Test
Male SD rats (body weight 180-200 g), 5 animals/group, were fasted for 24 hours, and their stomaches were damaged. The rats were administered with 10 ml/kg of test drug suspended in 1% methylceflulose orally and, after 1 hour, 1 ml of 99% ethanol orally. After 1 hour without food and water, the rats were sacrificed by cervical dislocation and stomaches thereof were removed. The removed stomaches were incised along the greater curvature and opened.

[3] abbreviates: Table 1a, neonatal SD rat DRG neurons, inhibition of response to capsaicin 0.5 μM.

T1 sequence (O35433 whole entry): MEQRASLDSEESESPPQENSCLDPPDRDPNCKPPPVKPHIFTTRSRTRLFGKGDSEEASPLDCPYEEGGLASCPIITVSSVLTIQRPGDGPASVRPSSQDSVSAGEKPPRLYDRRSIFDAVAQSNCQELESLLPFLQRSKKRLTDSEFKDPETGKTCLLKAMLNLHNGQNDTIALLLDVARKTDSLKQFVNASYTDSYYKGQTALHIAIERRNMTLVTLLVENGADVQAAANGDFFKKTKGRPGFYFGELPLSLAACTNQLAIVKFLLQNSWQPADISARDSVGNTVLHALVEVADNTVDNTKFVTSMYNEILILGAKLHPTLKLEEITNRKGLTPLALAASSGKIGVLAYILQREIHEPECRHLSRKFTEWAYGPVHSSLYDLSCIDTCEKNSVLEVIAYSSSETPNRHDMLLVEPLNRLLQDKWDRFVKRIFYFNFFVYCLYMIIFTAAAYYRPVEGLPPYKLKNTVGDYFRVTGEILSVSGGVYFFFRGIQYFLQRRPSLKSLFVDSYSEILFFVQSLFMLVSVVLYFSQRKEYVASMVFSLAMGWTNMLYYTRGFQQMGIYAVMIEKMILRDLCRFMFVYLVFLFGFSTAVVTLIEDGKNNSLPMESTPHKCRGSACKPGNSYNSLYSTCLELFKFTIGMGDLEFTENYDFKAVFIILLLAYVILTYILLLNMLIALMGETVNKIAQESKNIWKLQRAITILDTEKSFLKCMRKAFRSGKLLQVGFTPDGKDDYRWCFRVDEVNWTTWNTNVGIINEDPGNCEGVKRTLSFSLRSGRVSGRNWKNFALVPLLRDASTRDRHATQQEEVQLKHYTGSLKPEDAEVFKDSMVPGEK

For the compound `Oc1cc2c(cc1O)CN(C(=S)NCCc1ccc(Cl)cc1)CCC2` [Capsazepine, capsazepine, reference compound], on vanilloid receptor, the IC50 amounted to 590 nM.
As for `Cn1cccc1CCNC(=S)NCc1ccc(C(C)(C)C)cc1` [Example 5, 1-(4-t-butylbenzyl)-3-[2-(1-methyl-1H-pyrrol-2-yl)ethyl]thiourea], the inhibition in vivo at 10 mg/kg in the test with Male ICR mice [1] is 53%. Further, at vanilloid receptor, the IC50 amounted to 1100 nM.
For `CC(C)(C)c1ccc(CNC(=S)NCc2cc(F)c(N)cc2F)cc1` [Example 9, 1-(4-amino-2,5-difluorobenzyl)-3-(4-t-butylbenzyl)thiourea], at vanilloid receptor, the IC50 was 230 nM.
For `CC(C)(C)c1ccc(CNC(=S)NCc2ccc(NS(C)(=O)=O)c(F)c2)cc1` [Example 13, 1-(4-t-butylbenzyl)-3-(3-fluoro-4-methanesulfonylaminobenzyl)thiourea], the inhibition in vivo at 10 mg/kg with Male ICR mice [1] is 82%. Also, the IC50 on vanilloid receptor (setting [3]) was found to be 37 nM. Also, the “Anti-inflammtory effect (% Inhibition)” value with Male ICR mice [2] is 74%. In addition, in the test with Male SD rats, the “Anti-ulcerous effect (% inhibition)” value is 30%.
Regarding `CS(=O)(=O)Nc1ccc(CNC(=S)NCCc2ccccc2)cc1F` [Example 15, 1-phenethyl-3-(3-fluoro-4-methanesulfonylaminobenzyl)thiourea], the IC50 on vanilloid receptor came to 1200 nM.
For the compound `CC(C)(C)c1ccc(CNC(=S)NCc2ccc(NS(C)(=O)=O)c(Cl)c2)cc1` [Example 17], in the test on Male ICR mice [1], the inhibition in vivo at 10 mg/kg stood at 98%. Further, the IC50 at vanilloid receptor (setting [3]) was 8.4 nM. The “Anti-inflammtory effect (% Inhibition)” value with Male ICR mice [2] was 80%. Further, the “Anti-ulcerous effect (% inhibition)” value with Male SD rats is given as 58%.
As for `COC(=O)c1cc(CNC(=S)NCc2ccc(C(C)(C)C)cc2)ccc1NS(C)(=O)=O` [Example 18], the IC50 at vanilloid receptor (setting [3]) was 720 nM.
Take `CC(C)(C)c1ccc(CNC(=S)NCc2ccc(NS(C)(=O)=O)c(C(=O)O)c2)cc1` [Example 19, 1-(4-t-butylbenzyl)-3-(3-carboxyl-4-methanesulfonylaminobenzyl)thiourea]: on vanilloid receptor, the IC50 turned out to be 5.8 nM.
For the compound `COC(=O)c1cccc(CNC(=S)NCc2ccc(C(C)(C)C)cc2)c1` [Example 30], on vanilloid receptor, the IC50 was 1500 nM.
As for `CC(C)(C)c1ccc(CNC(=S)NCc2c(F)c(F)c(NS(C)(=O)=O)c(F)c2F)cc1` [Example 32, 1-(4-t-butylbenzyl)-3-(2,3,5,6-tetrafluoro-4-methanesulfonylaminobenzyl)thiourea], the IC50 at vanilloid receptor was determined as 31 nM.
Consider `CC(C)(C)c1ccc(CNC(=S)NCc2cc(F)c(NS(C)(=O)=O)cc2F)cc1` [Example 33, 1-(4-t-butylbenzyl)-3-(2,5-difluoro-4-methanesulfonylaminobenzyl)thiourea], for which the IC50 on vanilloid receptor stood at 110 nM. Moreover, in the test with Male ICR mice [2], the “Anti-inflammtory effect (% Inhibition)” value is 66%. Also, the “Anti-ulcerous effect (% inhibition)” value in the test on Male SD rats is recorded as 31%.
As for `CC(C)(C)c1ccc(CNC(=S)NCCc2ccc(NS(C)(=O)=O)cc2)cc1` [Example 36, 1-(4-t-butylbenzyl)-3-(4-methanesulfonylaminophenethyl)thiourea], the IC50 on vanilloid receptor was determined as 1100 nM.
For `CC(C)(C)c1ccc(CNC(=S)NCc2ccc(NS(C)(=O)=O)cc2)cc1` [Example 44], the inhibition in vivo at 3 mg/kg in the test with Male ICR mice [1] stood at 92%. In the test with Male ICR mice [2], the “Anti-inflammtory effect (% Inhibition)” value is recorded as 83%. In addition, in the test on Male SD rats, the “Anti-ulcerous effect (% inhibition)” value is recorded as 36%.
Take `CC(C)(C)c1ccc(CNC(=S)NCc2c(F)ccc(NS(C)(=O)=O)c2F)cc1` [Example 51, 1-(4-t-butylbenzyl)-3-(2,6-difluoro-3-methanesulfonylaminobenzyl)thiourea]: at vanilloid receptor, the IC50 stood at 700 nM.
Take `CC(C)(C)c1ccc(CNC(=S)NCc2cccc(NS(C)(=O)=O)c2)cc1` [Example 52, 1-(4-t-butylbenzyl)-3-(3-methanesulfonylaminobenzyl)thiourea]: in the test on Male ICR mice [1], the inhibition in vivo at 10 mg/kg came to 94%.
Regarding `CC(=O)OCc1cc(C(C)(C)C)ccc1CNC(=S)Nc1ccc(NS(C)(=O)=O)cc1` [Example 70, 1-(2-acetoxymethyl-4-t-butylbenzyl)-3-(4-methanesulfonylaminobenzene)thiourea], the IC50 on vanilloid receptor (Table 1b, neonatal SD rat DRG neurons, inhibition of response to capsaicin 0.5 μM) is 580 nM.
On to `Cc1ncsc1CCNC(=S)NCc1ccc(C(C)(C)C)cc1` [Example 73, 1-(4-t-butylbenzyl)-3-[2-(4-methylthiazol-5-yl)ethyl]thiourea], for which the inhibition in vivo at 10 mg/kg in the test on Male ICR mice [1] turned out to be 88%. Also, the IC50 on vanilloid receptor was determined as 1200 nM. The “Anti-inflammtory effect (% Inhibition)” value in the test with Male ICR mice [2] worked out at 77%. Besides, the “Anti-ulcerous effect (% inhibition)” value with Male SD rats is on record as 22%.
Turning to `CC(C)(C)c1ccc(CNC(=S)NCCc2ccccn2)cc1` [Example 83], in the test on Male ICR mice [1], the inhibition in vivo at 10 mg/kg came to 85%. Besides, the IC50 on vanilloid receptor was 1100 nM.
For `CC(C)(C)c1ccc(CNC(=S)NCc2cc(F)ccc2F)cc1` [Example 90], at vanilloid receptor, the IC50 turned out to be 420 nM.
As to `CC(C)(C)c1ccc(CNC(=S)NCCc2cccc(F)c2)cc1` [Example 96], the inhibition in vivo at 10 mg/kg with Male ICR mice [1] was found to be 58%. For the same compound, the IC50 on vanilloid receptor was 590 nM.
For the compound `Cn1cc(NS(C)(=O)=O)cc1CNC(=S)NCc1ccc(C(C)(C)C)cc1` [Example 134], at vanilloid receptor, the IC50 is 810 nM.
Same read-out and setting: the figure for `COc1cc(CCCN(Cc2ccccc2)/C(S)=N/CCc2ccccc2)ccc1O` [Example 152] is 950 nM.
On to `COc1cc(CCCN(C(=S)NCCc2ccccc2)C(c2ccccc2)c2ccccc2)ccc1O` [Example 161], for which the inhibition in vivo at 1 mg/kg in the test with Male ICR mice [1] (dose 1 mg/kg intraperitoneally) was determined as 73%. Besides, the IC50 at vanilloid receptor turned out to be 460 nM.
Consider `CC(C)(C)c1ccc(CNC(=NC#N)NCc2ccc(NS(C)(=O)=O)cc2)cc1` [Example 178], for which the IC50 on vanilloid receptor stood at 110 nM.
Same read-out and setting: next, `CC(C)(C)c1ccc(CCC(=O)NCc2ccc(NS(C)(=O)=O)c(F)c2)cc1` [Example 193, N-(3-fluoro-4-methanesulfonylaminobenzyl) 3-(4-t-butylphenyl)propionamide]: 210 nM; `CNS(=O)(=O)Nc1ccc(C/N=C(\S)NCc2ccc(C(C)(C)C)cc2)cc1` [Example 194, 1-(4-t-butylbenzyl)-3-(4-methylaminosulfonylaminobenzyl)thiourea]: 310 nM.
On the same count and under the same terms, next, `CC(C)(C)c1ccc(CNC(=S)NCc2ccc(NS(N)(=O)=O)cc2)cc1` [Example 196, 1-(4-t-butylbenzyl)-3-(4-aminosulfonylaminobenzyl)thiourea]: 150 nM.
For `COc1ccc2c(c1)c(CC(=O)O)c(C)n2C(=O)c1ccc(Cl)cc1` [Indomethacin, indomethacin, reference compound], the inhibition in vivo at 3 mg/kg with Male ICR mice [1] came out at 94%. Further, the “Anti-inflammtory effect (% Inhibition)” value with Male ICR mice [2] is 74%.
For the compound `CNC(=C[N+](=O)[O-])NCCSCc1ccc(CN(C)C)o1` [Ranitidine, ranitidine, reference compound], the “Anti-ulcerous effect (% inhibition)” value in the test on Male SD rats is listed as 4%.
